# Laboratory results taken from US8030444B2, “Microbicidal compositions comprising human CD38 polypeptides derived from the extracellular membrane-proximal region” (priority 2002, dated 2011).
# Like-named read-outs stand apart in the source and are kept apart here. Ends that are not written are not given here.
# Tests used:
# HIV-1IIIB [1] = tested on: HIV-1IIIB
# [2] = molecular target: T1, recombinant soluble human (rsh) CD4 (Homo sapiens, UniProt P01730); test: Binding of biotin-conjugated peptide to plate-adsorbed rshCD4 (ELISA); settings: 0.1-10 μM peptide
# T1 construct: recombinant soluble human (rsh) CD4 (2 μg/ml) (R&D Systems); purchased R&D Systems
# Protocol: Synthetic peptides from CD38 (SEQ ID NO:23) were conjugated with biotin (Pierce) as described in Wilchek, M., and Bayer, E. A., “Avidin-biotin technology,” Methods Enzymol., 184:1-746 (1990). Briefly, recombinant soluble human (rsh) CD4 (2 μg/ml) (R&D Systems) was adsorbed onto wells of 96-well-ELISA plates. Wells were then saturated with phosphate buffer saline (PBS)+2% bovine serum albumin (BSA), washed with PBS+1% BSA+0.05% Triton X-100, and the plates were incubated for 2 h at 37° C. with 100 μL of different concentrations (0.1-10 μM) of biotin-conjugated peptide. After six washes, 100 microl of streptavidin-conjugated horseradish peroxidase (HRP) from a commercially available HIV-1 p24 ELISA kit (NEN) diluted 1:100 in PBS+1% BSA was added to the wells for 30 min. at room temperature. After six more washes, the wells were incubated in the dark for 30 min. at room temperature with 100 μL of o-phenylenediamine (OPD tablets-Sigma), a chromogenic substrate for HRP diluted in phosphate-citrate buffer pH 5.0 as indicated in the Manufacturer's instructions. Then, the reaction was stopped by adding to each well 100 μL of 4 N sulfuric acid. Plates were read at 450 nm using an automated ELISA reader. […] Negative controls were run by incubating the wells with each of the titrated peptide in the absence of rshCD4 and performing the same steps described above. […]
# [3] = tested on: primary HIV-1 isolates (R5); test: Infection of PBMC by primary HIV-1 isolates, p24 ELISA; format: cell-based
# [4] = tested on: HIV-1IIIB-infected MT-4 cells; test: HIV-1 cytopathogenicity in MT-4 cells, re-clustering after cluster disruption; format: cell-based; settings: five days post-infection with HIV-1IIIB, 100 μM (FIG. 6)
# Protocol: MT-4 cells display a typical clustered pattern. When infected with HIV-1IIIB, MT-4 cells lose the capacity of forming clusters. At five days post-infection, clusters were dissociated by pipetting, and reclustering was examined microscopically after a 3-h incubation at 37° C., as described by Pauwels et al. Pauwels, R., et al., “Sensitive and rapid assay on MT-4 cells for detection of antiviral compounds against the AIDS virus,” J Virol Methods, 16: 171-185 (1987). In MT-4 cells, in fact, HIV-1IIIB acts as a slow/low syncytium-inducing strain whose cytopathic effect consists in loss of cell ability to cluster and is strictly correlated to the level of viral replication.
# MT-4 cells = test: Toxicity assays (trypan blue, MTT, propidium iodide/annexin V) on MT-4 cells; format: cell-based
# Protocol: (§1) Cell proliferation was assessed by sequential counts of the number of live cells per ml of cell cultures by the trypan-blue exclusion method. Cell viability and apoptosis were analyzed by the methyl tetrazolium (MTT) method (Sigma-Aldrich) according to a procedure previously described in Savarino, A., Calosso, L., Piragino, A., Martini, C., Gennero, L., Pescarmona, G. P., and Pugliese, A. (1999). Modulation of surface transferrin receptors in lymphoid cells de novo infected with human immunodeficiency virus type-1. Cell. Biochem. Funct 17, 47-55, the contents of which are hereby incorporated in their entirety, and by propidium iodide/annexin V FITC staining (MedSystems Diagnostics GmbH, Vienna, Austria) following the manufacturer's instructions.
# (§2) Cells (from established cell lines or primary cultures) were resuspended at 2.5×10^5/ml in the presence of 0, 0.1, 1, 10 and 100 nM CD3851-74 MBP. Then, 200 μL portions were transferred to microtiter trays and maintained at 37° C. […] Cell viability was monitored daily by trypan blue-dye exclusion. Cell proliferation was assessed by sequential counts of the number of live cells per ml of cell cultures by the trypan-blue exclusion method. Cell viability and apoptosis were analyzed by the methyl tetrazolium (MTT) method, and by propidium iodide/annexin V fluorescein isothiocyanate (FITC) staining following the manufacturer's instructions. […]
# [5] = molecular target: FITC-conjugated HIV-1IIIB gp120; test: gp120 attachment assay, FITC-gp120 staining of cells by flow cytometry; format: binding; settings: MT-2 cells, 50 nM peptide, 5 μg/ml gp120
# Protocol: In gp120 attachment assays, cells were incubated for 30 min. at 4° C. with 2 μg/ml of FlTC-conjugated HIV-1IIIB gp120 (gp120IIIB, Intracell Corp, London, UK) in PBS plus 2% albumin plus 0.01% NaN3 (PBS A/A) in the presence or absence of CD38 or CD38-derived molecules. Cells were then washed three times in PBS A/A, and fluorescence was acquired by flow cytometry. Fluorescence data were expressed as MeFI and normalized for CD4 expression where necessary.
# In gp120 attachment assays, cells were incubated with saturating concentrations of FITC-conjugated gp120 from the HIV-1IIIB strain (gp120IIIB) (Intracell Corp, London, UK) in the presence or absence of CD3851-74, (SEQ ID NO:15, 21), and acquired fluorescence flow-cytometrically. The MeFI was used as an estimate of gp120 binding to cells.
# HIV-1 gp120 binding experiments confirmed that CD3851-74 MBP inhibits at the level of gp120 attachment to target cells. In these experiments, MT-2 cells were incubated for 30 min. at 4° C. with saturating concentrations (5 μg/ml) of fluorescein isothiocyanate-labeled (FITC) HIV-1IIIB gp 120 (gp 120IIIB) in PBS plus 2% albumin plus 0.01% NaN3 (PBS A/A) in the presence or absence of 50 nM CD3851-74 MBP. Cells were then washed three times in PBS A/A, and fluorescence was acquired by flow cytometry.
# [6] = tested on: primary peripheral blood mononuclear cells (PBMC); test: Toxicity assays (trypan blue, MTT, propidium iodide/annexin V) on PBMC; format: cell-based
# Protocol: as §1, §2
# PHA-stimulated PBMC = test: Cytokine production by PBMC in response to PHA; format: cell-based
# Protocol: To evaluate whether CD3851-74 MBP might costimulate activation of PBMC, tests were conducted to evaluate cytokine production in response to PHA. For this purpose, PBMC were ficoll-separated and incubated with 0, 0.1, 1, 10 nM CD3851-74 MBP, in the presence of 0.1 or 1 μg/ml PHA. Then, supernatants were collected at 4, 12, 24, and 36 h of incubation, and the levels of TNF-alpha, IFN-gamma, IL-02, IL-4, IL-5, IL-6 and IL-10 were tested by ELISA (R and D Systems, Minneapolis, Minn.) or by cytofluorimetric multi-cytokine bead arrays (Becton-Dickinson). […] Some of these effects are depicted in the FIGS. 14, 15, 16 and 17. […] However, if significant, it would not be of safety concern. By contrast, it would support the anti-HIV effect of CD3851-74 MBP, since both TNF-alpha and IL-6 promote HIV-1 replication. […] De S K, Devadas K, Notkins A L. Elevated levels of tumor necrosis factor alpha (TNF-alpha) in human immunodeficiency virus type 1-transgenic mice: prevention of death by antibody to TNF-alpha. J Virol 2002; 76: 11710-4.
# HeLa cells = test: Toxicity assays (trypan blue, MTT, propidium iodide/annexin V) on HeLa cells; format: cell-based; settings: 0.1-100 nM
# Protocol: as §1, §2
# [7] = Water solubility of peptides
# HIV-1IIIB [8] = test: HIV-1IIIB infection of wild-type MT-2 cells in presence of soluble CD38; format: cell-based
# Protocol: In acute infection assays, the appropriate cell types were incubated at 37° C. for 2 h with the viral stock suspensions at a multiplicity of infection (MOI) of approximately 0.1, unless otherwise specified. After three washes, cells were incubated in fresh culture medium for 7 days at 37° C., and cell-free supernatants at different intervals post-infection were harvested for ELISA measurement of HIV-1 p24 (NEN Life Science Prod., Boston Mass.) or HIV-2 p27 (Coulter, Hialeah, Fla.). Where necessary, soluble CD38-derived molecules were added during the step of virus adsorption onto cells.
# First, attention was focused on the intracellular (IC) domain of CD38. HIV-1IIIB was used to infect both a MT-2 cell line transfected with a truncated form of CD38 lacking the IC domain (CD3824-300) and wild-type MT-2 cells in the presence of a recombinant soluble form of CD38 consisting solely of the extracellular (EC) domain (sCD3845-300).
substance,measurement,setting,value
(GPGTTK)8 polylysin (also: eight copies on polylysine core (MBP); listed as Homo sapiens) [GPGTTK MBP],inhibition of HIV-1IIIB replication (in words),"HIV-1IIIB [1]; MT-4 cells, p24 ELISA",dose-dependently inhibited infection
same,association of biotin-conjugated peptide to rshCD4 (O.D.),[2],associated to rshCD4 in a manner dependent on the concentration
same,anti-HIV activity against higher viral challenge,"[3]; HIV-1UG3, PBMC, MOI 0.5, 1 nM",maintains the anti-HIV activity
same,ability of infected MT-4 cultures to form clusters,[4],maintained a partial ability to form clusters
same,toxic effects on MT-4 cells,MT-4 cells; concentrations showing anti-HIV effects,no toxic effects
(SGPGTTKRFPETVLACVKYTEIH)8 polylysin [CD3851-74 MBP],range of inhibitory concentrations lower than that of CD3851-74,"HIV-1IIIB [1]; HIV-1 replication, compared with Example I",approximately 1000 fold
same,concentration range of dose-dependent inhibition of HIV-1IIIB infection,"HIV-1IIIB [1]; MT-4 cells, p24 ELISA Day 3",1 to 10 nM
same,EC50,"HIV-1IIIB [1]; read-out: EC50, inhibition of HIV-1IIIB infection, MT-4 cells, p24 ELISA Day 3, peptide added only during virus adsorption",0.012 µM
same,EC90,"HIV-1IIIB [1]; read-out: EC90, inhibition of HIV-1IIIB infection, MT-4 cells, p24 ELISA Day 3, peptide added only during virus adsorption",0.075 µM
same,gp120-FITC binding to cells,[5],down-modulated
same,toxicity in uninfected PBMC cultures,"[6]; 0.1 nM-100 nM, growth kinetics, trypan blue, MTT, annexin V/propidium iodide",did not display any significant toxicity
same,"cell proliferation, viability and death","[6]; PBMC, PHA-stimulated or unstimulated, three donors, 0.1-100 nM",does not alter cell proliferation and viability nor does it induce death
same,growth kinetics of primary R5 isolates subtype C (VI 829) and subtype A (UG3),"[3]; PBMC, 1 nM",delayed the growth kinetics
same,estimated selectivity index,"[3]; antiviral effects at 0.1 nM, no toxicity up to 100 nM",1000
same,concentration range inhibiting infection of PBMC by primary HIV-1 isolates,"[3]; pilot experiments, PBMC, isolate VI 829",0.1 to 10 nM
same,concentration at which antiviral effects were detected,[3]; see Example IV,0.1 nM
same,"IL-2, IL-4, IL-5 and IL-10 levels versus untreated cells","PHA-stimulated PBMC; PBMC, 0.1 or 1 μg/ml PHA, 0.1, 1, 10 nM peptide",essentially identical
same,TNF-alpha and IL-6 levels,"PHA-stimulated PBMC; PHA-stimulated PBMC, decrease did not reach statistical significance",transient and donor-dependent inhibition
same,"cell proliferation, viability and death",HeLa cells,does not alter cell proliferation and viability nor does it induce death
same,"cell proliferation, viability and death","MT-4 cells; MT-4 cells, 0.1-100 nM",does not alter cell proliferation and viability nor does it induce death
RQQWSGPGTTKRFPETVLARCVKYTEIH [SEQ ID NO: 17],water solubility,[7],water-insolubility
RQTWSGPGTTKRFPETVLARCVKYTEIH [SEQ ID NO: 13],water solubility,[7],water-insolubility
RWRQQWSGPGTTKRFPETVLARCVKYTEIH [SEQ ID NO: 16],water solubility,[7],water-insolubility
RWRQTWSGPGTTK [SEQ ID NO: 14],water solubility,[7],water-insolubility
RWRQTWSGPGTTKRFPETVLARCVKYTEIH [SEQ ID NO: 12],water solubility,[7],water-insolubility
SGPGTTKRFPETVLARCVKYTEIH [CD3851-74],EC50,"HIV-1IIIB [1]; 1IIIB, 2 h",2.2 µM
same,EC90,"HIV-1IIIB [1]; 1IIIB, 2 h",182 µM
same,toxic effects at the concentrations used,cell cultures,did not carry out toxic effects
sCD3845-300: recombinant soluble form of CD38 consisting solely of the extracellular (EC) domain,HIV infection of MT-2 cells,HIV-1IIIB [8],inhibited HIV infection
